Laboratory results from patent US20090081197A1 (Palatin Technologies, Inc., priority 2007, published 2009).

How the values were obtained:
MC1-R = target: T1, MC1-R (Mus musculus, UniProt Q01727); test: Competitive inhibition assay using [I^125]-NDP-α-MSH, B-16 mouse melanoma cell membranes; format: binding; conditions: for inhibition at 1 µM: 1 μM test compound, read-out: Inhibition at 1 μM (NDP-α-MSH) In Normal System, MC1-R; for Ki: read-out: Ki (nM) (NDP-α-MSH) In Normal System, MC1-R
T1 construct: B-16 mouse melanoma cells (containing MC1-R); endogenous in cells
T1 sequence (Q01727 whole entry): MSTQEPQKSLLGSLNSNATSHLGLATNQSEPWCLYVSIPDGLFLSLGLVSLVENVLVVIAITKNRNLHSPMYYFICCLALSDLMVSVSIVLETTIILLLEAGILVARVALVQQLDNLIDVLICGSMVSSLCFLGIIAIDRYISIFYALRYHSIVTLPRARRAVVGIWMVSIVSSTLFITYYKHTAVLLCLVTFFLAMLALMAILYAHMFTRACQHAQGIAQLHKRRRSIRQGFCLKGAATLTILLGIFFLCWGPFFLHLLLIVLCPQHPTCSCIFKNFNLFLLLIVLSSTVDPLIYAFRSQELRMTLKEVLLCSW
Experimental: (§1) The ligand concentration used was 0.4 nM for MC3-R and MC5-R, 0.2 nM for MC4-R and 0.1 nM for B16-F10 (MC1-R) membranes. In certain experiments, hMC1-R was also employed.
(§2) The assay mixture was incubated for 90 minutes at room temperature, then filtered and the membranes washed three times with ice cold buffer. The filter was dried and counted in a gamma counter for remaining radioactivity bound to the membranes. […] Each assay was conducted in triplicate and the actual mean values are described, with results less than 0% reported as 0%.

[1] = IP (and IN) food intake, mice; format: in vivo; conditions: mouse, IP; for maximal decrease in food intake / inhibition in vivo at 3 mg/kg / inhibition in vivo at 10 mg/kg: 4 hours; for inhibition in vivo at 3 mg/kg / inhibition in vivo at 10 mg/kg: read-out: maximal decrease in food intake; for decrease in food intake: 20 hours
Experimental: IV and IP food intake and body weight change. Change in food intake and body weight was evaluated for selected compounds. Male Sprague-Dawley rats or male C57BL/6 mice were utilized. Animals were individually housed in conventional plexiglass hanging cages and maintained on a controlled 12 hour on/off light cycle. Water and powdered (LabDiet, 5P00 Prolab RMH 3000) or pelleted (Harlan Teklad 2018 18% Protein Rodent Diet) food was provided ad libitum. For 1 week before treatment, 24-hour food intake and body weight change was recorded to assess a baseline for the group during vehicle treatment. The rats were dosed IV with vehicle or selected compounds (0.5-3 mg/kg, and in some cases up to 10 mg/Kg) or dosed intraperitoneally (IP) with vehicle or selected compounds (0.5-10 mg/kg, and in some cases up to 50 mg/kg). Mice were dosed IP. […] The changes in body weight and food intake for the 48 hour and 72 hour periods after dosing were also measured to determined reversal of changes in body weight and food intake effects back to baseline levels.

MC3-R = MC3-R (Homo sapiens, UniProt P41968); test: Competitive inhibition assay using [I^125]-NDP-α-MSH, hMC3-R membranes; format: binding; set-up: expressed in transfected cells; conditions: for inhibition at 1 µM: 1 μM test compound, read-out: Inhibition at 1 μM (NDP-α-MSH) In Normal System, MC3-R; for Ki: read-out: Ki (nM) (NDP-α-MSH) In Normal System, MC3-R
MC3-R, sequence (P41968 whole entry): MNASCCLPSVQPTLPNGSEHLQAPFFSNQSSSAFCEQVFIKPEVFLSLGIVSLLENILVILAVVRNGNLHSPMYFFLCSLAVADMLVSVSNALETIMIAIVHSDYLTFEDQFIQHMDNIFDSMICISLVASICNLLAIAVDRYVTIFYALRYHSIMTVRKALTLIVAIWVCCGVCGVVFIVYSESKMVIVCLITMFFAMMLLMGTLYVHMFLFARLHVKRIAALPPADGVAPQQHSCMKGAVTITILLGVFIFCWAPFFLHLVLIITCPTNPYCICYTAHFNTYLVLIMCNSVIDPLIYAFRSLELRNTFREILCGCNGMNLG
Experimental: as §1, §2

MC5-R = MC5-R (Homo sapiens, UniProt P33032); test: Competitive inhibition assay using [I^125]-NDP-α-MSH, hMC5-R membranes; format: binding; set-up: expressed in transfected cells; conditions: for inhibition at 1 µM: 1 μM test compound, read-out: Inhibition at 1 μM (NDP-α-MSH) In Normal System, MC5-R; for Ki: read-out: Ki (nM) (NDP-α-MSH) In Normal System, MC5-R
MC5-R, sequence (P33032 whole entry): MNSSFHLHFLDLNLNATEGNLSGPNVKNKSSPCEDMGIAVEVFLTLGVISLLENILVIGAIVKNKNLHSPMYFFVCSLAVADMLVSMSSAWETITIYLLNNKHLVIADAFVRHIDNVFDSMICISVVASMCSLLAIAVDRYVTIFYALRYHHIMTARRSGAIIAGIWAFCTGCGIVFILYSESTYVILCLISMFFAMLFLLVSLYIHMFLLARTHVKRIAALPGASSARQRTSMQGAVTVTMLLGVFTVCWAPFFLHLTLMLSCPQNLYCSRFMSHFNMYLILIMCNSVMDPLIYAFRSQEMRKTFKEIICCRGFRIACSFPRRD
Experimental: as §1, §2

MC4-R [2] = target: T2, MC4-R (Homo sapiens, UniProt P32245); test: Competitive inhibition assay using [I^125]-NDP-α-MSH, hMC4-R membranes; format: binding; set-up: host or cells: TREx-293 (HEK-293 stably expressing Tet repressor); conditions: for inhibition at 1 µM: 1 μM test compound, read-out: Inhibition at 1 μM (NDP-α-MSH) In Normal System, MC4-R; for Ki: read-out: Ki (nM) (NDP-α-MSH) In Normal System, MC4-R
T2 sequence (P32245 whole entry): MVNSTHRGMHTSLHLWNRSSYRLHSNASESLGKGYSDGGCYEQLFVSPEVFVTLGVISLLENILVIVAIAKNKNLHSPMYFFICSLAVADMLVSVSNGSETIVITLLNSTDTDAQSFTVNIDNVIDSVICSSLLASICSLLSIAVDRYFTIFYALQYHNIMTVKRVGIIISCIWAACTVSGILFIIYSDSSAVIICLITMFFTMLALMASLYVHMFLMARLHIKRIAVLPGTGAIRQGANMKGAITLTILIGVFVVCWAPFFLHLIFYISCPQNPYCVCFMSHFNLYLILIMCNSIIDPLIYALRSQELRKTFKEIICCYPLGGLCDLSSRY
Experimental: as §1, §2

MC4-R [3] = target: T2, MC4-R; test: cAMP agonist stimulation, low receptor density system (0.1 ng/mL doxycycline); conditions: for Efficacy/Intrinsic Activity: 0.1 ng/mL doxycycline, low receptor density hMC4-R system, NDP-α-MSH maximal cAMP = 1.0
MC4-R [4] = target: T2, MC4-R; test: cAMP agonist stimulation, high receptor density system (10 ng/mL doxycycline); conditions: for Efficacy/Intrinsic Activity: 10 ng/mL doxycycline, high receptor density hMC4-R system, NDP-α-MSH maximal cAMP = 1.0
[5] = Penile erection induction in male rats; format: in vivo
Experimental: Penile erection induction. The ability of compounds to induce penile erection (PE) in male rats was evaluated with selected compounds. Male Sprague-Dawley rats weighing 200-250 g were kept on a 12 hour on/off light cycle with food and water ad libitum. All behavioral studies were performed between 10 A.M. and 5 P.M. Groups of 4-8 rats were treated with compounds at a variety of doses via intravenous (IV) or intracerebroventricular (ICV) routes. Immediately after treatment, rats were placed into individual polystyrene cages (27 cm long, 16 cm wide, and 25 cm high) for behavioral observation. […] Controls utilized carrier without the test compound. Mean PEs in control groups were 0.17 to 0.5 PEs/rat by IV administration in various experiments and between 1-2 PEs/rat by ICV administration in various experiments, and thus only PEs with statistically relevant increases over the mean PEs in control groups are reported as inducing PEs. A PE response in IV animals greater than the mean PEs in control groups but less than 1.0 PEs/rat, particularly with less than all animals responding, was treated as equivocal, and not necessarily distinguishable from vehicle control. In selected instances, compounds with equivocal results in the IV model were tested for penile response in an ICV model, and compounds without a statistically relevant increase over the mean PEs in ICV control groups were determined to not induce PEs.

MC4-R [6] = target: T2, MC4-R; test: cAMP functional activity assay in HEK-293 cells, normal system; format: cell-based; set-up: expressed in transfected cells; host or cells: HEK-293; conditions: for intrinsic activity at MC4-R in a normal system / EC50: normal receptor density system; for intrinsic activity at MC4-R in a normal system: NDP-α-MSH = 1.0; for functional status at MC4-R in cAMP assay: normal system, 1 μM concentration where stated
Experimental: General method for EC50 determination in functional activity assay. […] Data analysis and EC50 values were determined using nonlinear regression analysis with Prism Graph-Pad software.
Functional status. The agonist/antagonist status with respect to MC1-R, MC-3R, MC4-R and MC5-R of certain compounds of the invention was determined. Antagonistic activity was determined by measuring the inhibition of α-MSH-induced or NDP-α-MSH-induced cAMP levels following exposure to graded doses of compounds as in the preceding descriptions.
Assay for agonist. Evaluation of the molecules to elicit a functional response in HEK-293 cells expressing MC4-R was accomplished by measuring the accumulation of intracellular cAMP following treatment. Confluent HEK-293 cells expressing MC4-R receptors were detached by enzyme free cell suspension buffer. […] The cells were plated in a 96 well plates at a density of 0.5×10^5 cells per well and pre-incubated for 30 minutes. Test compounds (dissolved in dimethylsulfoxide (DMSO) at a concentration range of 0.05-5000 nM) were added in a total assay volume of 200 μL and cells were incubated for 1 hour at 37° C. The concentration of DMSO was always held at 1% in the assay mixture. NDP-α-MSH was used as the reference agonist. […] Data analysis and EC50 values were determined by using nonlinear regression analysis with Prism Graph-Pad software. […] Compounds with a response ratio of less than 0.1 (10%) were evaluated for antagonistic activity.

| Structure (SMILES) | inhibition at 1 µM (MC1-R) | Ki (MC1-R) | inhibition at 1 µM (MC3-R) | inhibition at 1 µM (MC5-R) | inhibition at 1 µM (MC4-R [2]) | Efficacy/Intrinsic Activity (MC4-R [3]) | Efficacy/Intrinsic Activity (MC4-R [4]) | Penile Erection IV ([5]; rat, IV) | penile erection response ([5]; rat, IV, 1 and 3 mg/kg) | inhibition in vivo at 3 mg/kg ([1]; 3 mg/kg) | inhibition in vivo at 10 mg/kg ([1]; 10 mg/kg) | intrinsic activity at MC4-R in a normal system (MC4-R [6]) | functional status at MC4-R in cAMP assay (MC4-R [6]) | EC50 (MC4-R [4]) | EC50 (MC4-R [3]) | Ki (MC3-R) | Ki (MC5-R) | EC50 (MC4-R [6]) | Ki (MC4-R [2]) | further results |
| --- | --- | --- | --- | --- | --- | --- | --- | --- | --- | --- | --- | --- | --- | --- | --- | --- | --- | --- | --- | --- |
| CC(=O)N[C@H](Cc1ccc(C)cc1C)C(=O)N1C[C@@H](C)N(CCc2ccc3ccccc3c2)C[C@@H]1CCCNC(=N)N [Example 25, N-{1(R)-(2,4-Dimethyl-benzyl)-2-[2(S)-(3-guanidino-propyl)-5(R)-methyl-4-(2-naphthalen-2-yl-ethyl)-piperazin-1-yl]-2-oxo-ethyl}-acetamide] | 28% | 568 nM | 75% | 89% | 100% | None | None |  |  |  |  |  |  |  |  |  |  |  |  | maximal decrease in food intake ([1]; 10 mg/kg): 34% |
| Cc1cc(Cl)ccc1C[C@@H](N)C(=O)N1C[C@@H](C)N(CCc2ccc3ccccc3c2)C[C@@H]1CCCNC(=N)N [Example 26, N-{3-[1-[2(R)-Amino-3-(2-methyl, 4-chloro-phenyl)-propionyl]-5(R)-methyl-4-(2-naphthalen-2-yl-ethyl)-piperazin-2(S)-yl]-propyl}-guanidine] | 6% |  | 74% | 77% | 100% | None | 0.78 | No | no penile erection | 44% | 86% | 0.3 | partial agonist (intrinsic activity between 0.1 (10%) and 0.7 (70%) is classified as a partial agonist) | 31 nM |  |  |  |  |  |  |
| Cc1ccc(C[C@@H](N)C(=O)N2C[C@@H](C)N(CCc3ccc4ccccc4c3)C[C@@H]2CCCNC(=N)N)c(C)c1 [Example 27, N-{3-[1-[2(R)-Amino-3-(2,4-dimethyl-phenyl)-propionyl]-5(R)-methyl-4-(2-naphthalen-2-yl-ethyl)-piperazin-2(S)-yl]-propyl}-guanidine] | 9% | 1230 nM | 62% | 59% | 100% | None | 0.61 | No | no penile erections | 47% | 88% | 0.2 | partial agonist (intrinsic activity between 0.1 (10%) and 0.7 (70%) is classified as a partial agonist) | 129 nM |  |  |  |  |  | Penile Erection ICV ([5]; rat, ICV): No; penile erection response ([5]; rat, ICV, 1 and 3 nmole): no penile erection response |
| C[C@@H]1CN(C(=O)[C@H](N)Cc2ccc(Cl)cc2)[C@@H](CCCNC(=N)N)CN1CCc1ccc2ccccc2c1 [Example 28, N-{3-[1-[2(R)-Amino-3-(4-chloro-phenyl)-propionyl]-5(R)-methyl-4-(2-naphthalen-2-yl-ethyl)-piperazin-2(S)-yl]-propyl}-guanidine] | 64% |  | 70% | 61% | 97% | 0.29 | 0.75 | No |  |  |  | 0.8 | agonist (intrinsic activity of 0.7 (70%) or higher is classified as an agonist) | 24 nM | 106 nM |  |  |  |  | penile erection response ([5]; rat, IV, 0.003 to 3 mg/kg): no penile erections; maximal decrease in food intake ([1]; 3 mg/kg): 46% |
| Cc1ccc(C[C@@H](N)C(=O)N2C[C@@H](C)N(C(=O)Cc3ccc4ccccc4c3)C[C@@H]2CCCNC(=N)N)c(C)c1 [Example 29] | 0% | 431 nM | 25% | 7% | 85% | 0.25 | 0.77 | Yes* |  |  |  | 0.8 | agonist (intrinsic activity of 0.7 (70%) or higher is classified as an agonist) | 34 nM | 45 nM | 526 nM | 1540 nM | 46 nM | 6 nM | maximum mean PEs per rat ([5]; IV, 0.0003 to 0.03 mg/kg): 0.5; animals responding ([5]; rat, IV, 0.0003 to 0.03 mg/kg): no more than 50%; decrease in food intake ([1]; 3 mg/kg): 3%; decrease in food intake ([1]; 10 mg/kg): 26% |
| CC(=O)N[C@H](Cc1ccc(C)cc1C)C(=O)N1C[C@@H](C)N(C(=O)Cc2ccc3ccccc3c2)C[C@@H]1CCCNC(=N)N [Example 30, N-{(R)-1-(2,4 dimethyl-benzyl)-2-[(2S,5R)-2-(3-guanidino-propyl)-5-methyl-4-(2-naphthalen-2-yl-acetyl)-piperazin-1-yl]-2-oxo-ethyl}-acetamide] |  | 1880 nM |  |  |  | None | 0.18 | No |  | 8% |  | 0.4 | partial agonist (intrinsic activity between 0.1 (10%) and 0.7 (70%) is classified as a partial agonist) | 51 nM |  | 232 nM | 250 nM | 9 nM | 11 nM | penile erection response ([5]; rat, IV, 0.0003 to 0.03 mg/kg): no penile activity response |
